The source of these data is PMC7178833, “Preparation, carbonic anhydrase enzyme inhibition and antioxidant activity of novel 7-amino-3,4-dihydroquinolin-2(1H)-one derivatives incorporating mono or dipeptide moiety” (Journal of Enzyme Inhibition and Medicinal Chemistry, 2020).

Some results are limits rather than exact numbers.

In one series the target is hCA XII (Homo sapiens, UniProt O43570). Put plainly: stopped flow CO2 hydrase assay, hCA XII. The series is classed as biochemical. Particulars: mean from three different assays. As for the experimental part: (§1) An Applied Photophysics Stopped-Flow instrument has been used for assaying the CA catalysed CO2 hydration activity by using method of Khalifah[21]. Phenol red (at a concentration of 0.2 mM) has been used as indicator, working at the absorbance maximum of 557 nm, with 20 mM HEPES (pH 7.5) as buffer and 20 mM Na2SO4 (for maintaining constant the ionic strength), following the initial rates of the CA-catalysed CO2 hydration reaction for a period of 10–100 s. The CO2 concentrations ranged from 1.7 to 17 mM for the determination of the kinetic parameters and inhibition constants. […] The uncatalysed rates were determined in the same manner and subtracted from the total observed rates. Stock solutions of inhibitor (0.1 mM) were prepared in distilled–deionised water and dilutions up to 0.01 nM were done thereafter with the assay buffer. Inhibitor and enzyme solutions were pre-incubated together for 15 min at room temperature prior to assay, in order to allow for the formation of the E–I complex. The inhibition constants were obtained by non-linear least-square methods using PRISM (www.graphpad.com), and non-linear least squares methods, values representing the mean of at least three different determinations, as described earlier by us[22–27].

A short description of series [1]: DPPH radical scavenging activity. As for the experimental part: Antioxidant activity was determined based on the ability of the antioxidants to act as radical scavengers towards the stable free radical, 1,1-diphenyl-2-picrylhydrazyl (DPPH). As detailed by Yang et al[28], 1 ml of antioxidant solution (solubilised in ethanol) was added to 3 ml of a 0.1 mM ethanolic solution of DPPH. After 30 min at ambient temperature in darkness, absorbance readings were taken at 517 nm. Inhibition (%) was calculated using the equation [1 – (As−Ao)/Ab]×100 where As was the absorbance reading for samples containing antioxidant, Ao was the absorbance of the antioxidant in pure methanol and Ab corresponded to the absorbance of the DPPH solution.
The antioxidant activity of the compounds was determined based on the ability of the antioxidants to act as radical scavengers towards the stable free radical, 1,1-diphenyl-2-picrylhydrazyl (DPPH)[28].
(In general: Loss of DPPH colour is used to gauge radical scavenging.)

In the next series the target is hCA I (Homo sapiens, UniProt P00915). Put plainly: stopped flow CO2 hydrase assay, hCA I. Format: biochemical. Particulars: mean from three different assays. As to the method:
as §1

A further series addresses hCA IX (Homo sapiens, UniProt Q16790). Kind of series: stopped flow CO2 hydrase assay, hCA IX. The series is classed as biochemical. Particulars: mean from three different assays. As to the method: as §1
The next series addresses hCA II (Homo sapiens, UniProt P00918). Put plainly: stopped flow CO2 hydrase assay, hCA II. The series is classed as biochemical. Particulars: mean from three different assays, read-out: Ki hCAII. As to the method: as §1

Chain of hCA I (P00915 whole entry): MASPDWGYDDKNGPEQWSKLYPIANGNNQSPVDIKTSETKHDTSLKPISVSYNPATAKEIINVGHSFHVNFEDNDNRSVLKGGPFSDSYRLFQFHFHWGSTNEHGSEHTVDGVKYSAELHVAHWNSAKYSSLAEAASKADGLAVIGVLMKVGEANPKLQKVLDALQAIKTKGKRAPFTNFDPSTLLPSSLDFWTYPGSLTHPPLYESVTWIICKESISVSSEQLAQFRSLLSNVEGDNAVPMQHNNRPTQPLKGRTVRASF
Chain of hCA XII (O43570 25-354): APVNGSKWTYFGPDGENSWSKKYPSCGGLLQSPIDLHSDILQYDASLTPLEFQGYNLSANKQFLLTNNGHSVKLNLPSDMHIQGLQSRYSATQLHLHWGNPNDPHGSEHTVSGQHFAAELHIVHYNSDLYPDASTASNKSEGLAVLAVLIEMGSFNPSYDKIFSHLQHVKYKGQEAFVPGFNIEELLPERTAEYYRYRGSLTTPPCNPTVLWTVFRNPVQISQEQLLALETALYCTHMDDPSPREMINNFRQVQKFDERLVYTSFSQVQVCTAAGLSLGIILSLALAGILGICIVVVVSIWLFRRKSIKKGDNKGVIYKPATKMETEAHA

One may read the Ki as a dissociation constant, usually derived from enzyme kinetics or from competition with a known ligand. The term melting point denotes the temperature of the solid-liquid transition. Regarding `CC(C)(C)OC(=O)N[C@H](Cc1ccccc1)C(=O)Nc1ccc2c(c1)NC(=O)CC2` (stereo in doubt) [Compound 2, Tert-butyl (R)-(1-oxo-1-((2-oxo-1,2,3,4-tetrahydroquinolin-7-yl)amino)-3-phenylpropan-2-yl)carbamate], the melting point was 180 to 181 °C. In addition, the Ki at hCA XII was determined as 3.8 µM. The “Antioxidant activity, %” value in series [1] (12.5 μg/ml) is recorded as 3.1%. For the same molecule, the “Antioxidant activity, %” value in series [1] (25 μg/ml) is 2.2%. For the same molecule, the “Antioxidant activity, %” value in series [1] (37.5 μg/ml) turned out to be 0.0%. Moreover, in series [1] (62.5 μg/ml), the “Antioxidant activity, %” value is on record as 0.9%. Moreover, in series [1] (125 μg/ml), the “Antioxidant activity, %” value worked out at 0.6%. In addition, at hCA I, the Ki is greater than 100 µM. The affinity on hCA IX, expressed as Ki, was 41.2 µM. On hCA II, the Ki was greater than 100 µM.
`C[C@@H](NC(=O)OC(C)(C)C)C(=O)Nc1ccc2c(c1)NC(=O)CC2` (stereo in doubt) [Compound 1, Tert-butyl (R)-(1-oxo-1-((2-oxo-1,2,3,4-tetrahydroquinolin-7-yl)amino)propan-2-yl)carbamate] returned a melting point of 197 to 198 °C. Besides, on hCA XII, affinity was put at a Ki of 2 µM. For the same molecule, in series [1] (12.5 μg/ml), the “Antioxidant activity, %” value is on record as 3.8%. In addition, the “Antioxidant activity, %” value in series [1] (25 μg/ml) is listed as 2.2%. Also, in series [1] (37.5 μg/ml), the “Antioxidant activity, %” value is 2.5%. Also, the “Antioxidant activity, %” value in series [1] (62.5 μg/ml) is on record as 1.6%. In addition, the “Antioxidant activity, %” value in series [1] (125 μg/ml) is given as 0.6%. The molecule further came in with an inhibition constant Ki at hCA I greater than 100 µM. Further, on hCA IX, the Ki came to 86.8 µM. Besides, on hCA II, the Ki is greater than 100 µM.
Turning to “Benzyl ((R)-1-oxo-1-(((S)-1-oxo-1-((2-oxo-1,2,3,4-tetrahydroquinolin-6-yl)amino)-3-phenylpropan-2-yl)amino)-3-phenylpropan-2-yl)carbamate [Compound 6]”, the inhibitory constant (Ki) on hCA XII is 8.6 µM; at hCA I, greater than 100 µM; at hCA IX it was 47.6 µM; on hCA II, greater than 100 µM. For the same molecule, the “Antioxidant activity, %” value was 1.9% in series [1] (12.5 μg/ml), 6.3% in series [1] (25 μg/ml), 8.8% in series [1] (37.5 μg/ml) and 16.4% in series [1] (62.5 μg/ml).
For the molecule `Cc1c(C)c2c(c(C)c1O)CC[C@@](C)(CCC[C@H](C)CCC[C@H](C)CCCC(C)C)O2` [α-Toc., α-tocopherol, reference compound], the “Antioxidant activity, %” value in series [1] (12.5 μg/ml) came out at 62.9%; in series [1] (25 μg/ml), 63.4%; in series [1] (37.5 μg/ml) it was 68.4%; in series [1] (62.5 μg/ml) it was 72.8%; in series [1] (125 μg/ml), 74.0%.
`O=C1CCc2ccc(NC(=O)[C@H](CSc3ccccc3)NC(=O)OCc3ccccc3)cc2N1` (stereo in doubt) [Compound 4, Benzyl (R)-(1-oxo-1-((2-oxo-1,2,3,4-tetrahydroquinolin-7-yl)amino)-3-(phenylthio)propan-2-yl)carbamate]: the melting point lay in the range of 150 to 151 °C. In addition, at hCA XII, the inhibition constant (Ki) turned out to be 5.7 µM. In addition, in series [1] (12.5 μg/ml), the “Antioxidant activity, %” value was 2.5%. The “Antioxidant activity, %” value in series [1] (25 μg/ml) came out at 1.6%. Further, in series [1] (37.5 μg/ml), the “Antioxidant activity, %” value stood at 0.9%. Further, the “Antioxidant activity, %” value in series [1] (62.5 μg/ml) amounted to 2.2%. The “Antioxidant activity, %” value in series [1] (125 μg/ml) turned out to be 1.6%. In addition, on hCA I, the Ki was greater than 100 µM. The molecule also had a Ki on hCA IX of 65.4 µM. Further, on hCA II, the Ki was greater than 100 µM.
Turning to `COc1ccc(O)c(C(C)(C)C)c1` [BHA, reference compound], the “Antioxidant activity, %” value in series [1] (12.5 μg/ml) is 61.1%; in series [1] (25 μg/ml), 63.0%; in series [1] (37.5 μg/ml), 67.5%; in series [1] (62.5 μg/ml), 71.0%; in series [1] (125 μg/ml), 72.4%.
`CSCC[C@H](NC(=O)OCc1ccccc1)C(=O)Nc1ccc2c(c1)NC(=O)CC2` (stereo in doubt) [Compound 5, Benzyl (S)-(4-(methylthio)-1-oxo-1-((2-oxo-1,2,3,4-tetrahydroquinolin-7-yl)amino)butan-2-yl)carbamate]: the melting point was 137 to 138 °C. Moreover, the Ki at hCA XII stood at 7 µM. In addition, the “Antioxidant activity, %” value in series [1] (12.5 μg/ml) was determined as 2.8%. Moreover, the “Antioxidant activity, %” value in series [1] (25 μg/ml) stood at 1.9%. Moreover, the “Antioxidant activity, %” value in series [1] (37.5 μg/ml) came out at 1.9%. Besides, the “Antioxidant activity, %” value in series [1] (62.5 μg/ml) is recorded as 2.8%. Also, the “Antioxidant activity, %” value in series [1] (125 μg/ml) worked out at 2.8%. Further, at hCA I, the Ki was greater than 100 µM. Also, the inhibitory constant (Ki) on hCA IX was 37.7 µM. Further, the Ki at hCA II is greater than 100 µM.
For the molecule `CSCC[C@H](NC(=O)OC(C)(C)C)C(=O)Nc1ccc2c(c1)NC(=O)CC2` (stereo in doubt) [Compound 3, Tert-butyl (S)-(4-(methylthio)-1-oxo-1-((2-oxo-1,2,3,4-tetrahydroquinolin-7-yl)amino)butan-2-yl)carbamate], the melting point was 171 to 172 °C. On hCA XII, this molecule came in with a Ki of 8.5 µM. For the same molecule, the “Antioxidant activity, %” value in series [1] (12.5 μg/ml) is recorded as 0.9%. For the same molecule, the “Antioxidant activity, %” value in series [1] (25 μg/ml) came out at 0.3%. On hCA I, this molecule registered a Ki greater than 100 µM. The molecule further yielded an inhibitory constant (Ki) at hCA IX of 42.6 µM. Besides, the Ki at hCA II was greater than 100 µM.
